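Test compounds were applied to cells in 96-well plates for 48 hours at 5 doses. The concentration for 50% growth inhibition is given as GI50.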 Active and inactive are the calls of the source. No stated cut-off is given here; in the data, active = GI50 up to about 1.1 µM and inactive = higher. *1 amine or outer side, *2 acyl side, *3 side chain or, on linkers, in order; H or OH if unused. Where a SMILES comes first, the peptide text is derived from it. [ ]: non-standard residue; d: D form. The star is where a group is joined. X31 = CC(=O)N(C)SCC(N[*:1])C(=O)[*:2]; Fmoc = O=C(OCC1c2ccccc2-c2ccccc21)*; For = O=C*
Legend:
Assay in all cases: NCI tumour cell line growth inhibition, 48 h
TK-10 = test system: TK-10
RXF 393 = test system: RXF 393
ACHN = test system: ACHN
UACC-257 = test system: UACC-257
HCT-116 = test system: HCT-116
NCI-H522 = test system: NCI-H522
MDA-N = test system: MDA-N
SF-539 = test system: SF-539
NCI/ADR-RES = test system: NCI/ADR-RES
SF-295 = test system: SF-295
SK-MEL-28 = test system: SK-MEL-28
HCT-15 = test system: HCT-15
EKVX = test system: EKVX
NCI-H226 = test system: NCI-H226
DU-145 = test system: DU-145
Hs-578T = test system: Hs-578T
HCC 2998 = test system: HCC 2998
MDA-MB-231 = test system: MDA-MB-231
A498 = test system: A498
CCRF-CEM = test system: CCRF-CEM

SMILES	GI50 (TK-10)	GI50 (RXF 393)	GI50 (ACHN)	GI50 (UACC-257)	GI50 (HCT-116)	GI50 (NCI-H522)	GI50 (MDA-N)	GI50 (SF-539)	GI50 (NCI/ADR-RES)	GI50 (SF-295)	GI50 (SK-MEL-28)	GI50 (HCT-15) [µM]	GI50 (EKVX)	GI50 (NCI-H226)	GI50 (DU-145)	GI50 (Hs-578T)	GI50 (HCC 2998)	GI50 (MDA-MB-231)	GI50 (A498)	GI50 (CCRF-CEM)
COc1cc(C(=O)Nc2nnc(S(N)(=O)=O)s2)cc(OC)c1OC	> 100 µM (inactive)	> 100 µM (inactive)	> 100 µM (inactive)	> 100 µM (inactive)	> 100 µM (inactive)	> 100 µM (inactive)	> 100 µM (inactive)	> 100 µM (inactive)	> 100 µM (inactive)	> 100 µM (inactive)	> 100 µM (inactive)	> 100	> 100 µM (inactive)	> 100 µM (inactive)	> 100 µM (inactive)	> 100 µM (inactive)	> 100 µM (inactive)	> 100 µM (inactive)	–	–
COc1cc2c(OC)c3cc(C)oc(=O)c3c(O)c2c(O)c1-c1c(OC)cc2c(OC)c3cc(C)oc(=O)c3c(O)c2c1O	24.4 µM (inactive)	20.1 µM (inactive)	16.5 µM (inactive)	20.2 µM (inactive)	14.9 µM (inactive)	18.7 µM (inactive)	–	17.6 µM (inactive)	17.1 µM (inactive)	18.6 µM (inactive)	21.2 µM (inactive)	18.5	21.9 µM (inactive)	20.3 µM (inactive)	33.9 µM (inactive)	34.2 µM (inactive)	18.9 µM (inactive)	18.4 µM (inactive)	24.2 µM (inactive)	18.6 µM (inactive)
N#Cc1ccc(Oc2nc3ccccc3nc2-c2ccccc2)cc1	> 100 µM (inactive)	> 100 µM (inactive)	> 100 µM (inactive)	> 100 µM (inactive)	> 100 µM (inactive)	> 100 µM (inactive)	> 100 µM (inactive)	–	–	> 100 µM (inactive)	> 100 µM (inactive)	> 100	> 100 µM (inactive)	> 100 µM (inactive)	> 100 µM (inactive)	> 100 µM (inactive)	> 100 µM (inactive)	> 100 µM (inactive)	> 100 µM (inactive)	> 100 µM (inactive)
O=C(O)CN1CCNCCN(CP(=O)(O)O)CC1	> 37.2 µM (inactive)	6.89 µM (inactive)	> 100 µM (inactive)	> 33.8 µM (inactive)	3.87 µM (inactive)	2.58 µM (inactive)	5.35 µM (inactive)	–	–	26.2 µM (inactive)	> 100 µM (inactive)	4.25	13.2 µM (inactive)	> 39.1 µM (inactive)	> 100 µM (inactive)	> 30.1 µM (inactive)	3.28 µM (inactive)	> 70.1 µM (inactive)	> 19.7 µM (inactive)	4.94 µM (inactive)
O=c1oc2ccccc2c(-c2ccc(O)cc2)c1Oc1ccccc1	8.05 µM (inactive)	23 µM (inactive)	10.2 µM (inactive)	7.83 µM (inactive)	20 µM (inactive)	3.47 µM (inactive)	14.3 µM (inactive)	20.7 µM (inactive)	–	22 µM (inactive)	18.8 µM (inactive)	7.83	15.7 µM (inactive)	> 47 µM (inactive)	4.25 µM (inactive)	7.5 µM (inactive)	7.21 µM (inactive)	3.17 µM (inactive)	7.71 µM (inactive)	25.4 µM (inactive)
CCOC(=O)C(=O)N/N=C1\C(=O)Nc2ccccc21	> 100 µM (inactive)	> 100 µM (inactive)	> 100 µM (inactive)	> 100 µM (inactive)	> 100 µM (inactive)	> 100 µM (inactive)	> 100 µM (inactive)	–	> 100 µM (inactive)	> 100 µM (inactive)	> 100 µM (inactive)	> 100	> 100 µM (inactive)	> 100 µM (inactive)	> 100 µM (inactive)	–	> 100 µM (inactive)	> 100 µM (inactive)	> 100 µM (inactive)	> 100 µM (inactive)
Cc1ccc(C(=O)N/N=C(\N=N\c2ccccc2Cl)c2ccc(N(C)C)cc2)cc1	> 100 µM (inactive)	–	13.3 µM (inactive)	27.5 µM (inactive)	29.2 µM (inactive)	27.5 µM (inactive)	11.5 µM (inactive)	21.4 µM (inactive)	27.3 µM (inactive)	28.8 µM (inactive)	> 100 µM (inactive)	30.6	27.2 µM (inactive)	60.8 µM (inactive)	2.61 µM (inactive)	> 100 µM (inactive)	25.1 µM (inactive)	52.6 µM (inactive)	–	16.6 µM (inactive)
C=C1C(=O)O[C@H]2C/C(C)=C/CC[C@]3(C)CCC[C@](C)(CC[C@@H]12)O3	8.38 µM (inactive)	8.09 µM (inactive)	8.99 µM (inactive)	8.85 µM (inactive)	8.69 µM (inactive)	6.35 µM (inactive)	14.6 µM (inactive)	9.48 µM (inactive)	7.91 µM (inactive)	21.9 µM (inactive)	7.52 µM (inactive)	10.8	9.04 µM (inactive)	11.9 µM (inactive)	15.2 µM (inactive)	8.69 µM (inactive)	7.24 µM (inactive)	13.3 µM (inactive)	–	0.828 µM (active)
CCOP(=O)(OCC)[C@H](O)c1ccsc1	> 100 µM (inactive)	> 100 µM (inactive)	> 100 µM (inactive)	> 100 µM (inactive)	> 100 µM (inactive)	> 100 µM (inactive)	> 100 µM (inactive)	> 100 µM (inactive)	> 100 µM (inactive)	> 100 µM (inactive)	> 100 µM (inactive)	> 100	> 100 µM (inactive)	> 100 µM (inactive)	> 100 µM (inactive)	–	> 100 µM (inactive)	> 100 µM (inactive)	> 100 µM (inactive)	> 100 µM (inactive)
CCOC(=O)Cn1nnc2ccc(Nc3nc4ccccc4nc3-c3ccccc3)cc21	25.4 µM (inactive)	> 100 µM (inactive)	> 100 µM (inactive)	70.5 µM (inactive)	95.3 µM (inactive)	> 100 µM (inactive)	> 100 µM (inactive)	59.6 µM (inactive)	> 100 µM (inactive)	85.5 µM (inactive)	> 100 µM (inactive)	> 100	> 100 µM (inactive)	> 100 µM (inactive)	11 µM (inactive)	75.2 µM (inactive)	17.3 µM (inactive)	–	> 100 µM (inactive)	> 100 µM (inactive)
Cc1nn(-c2ccccc2)c2c1N=C(C(=O)O)CC(c1ccccc1)=N2	> 10 µM (inactive)	–	> 10 µM (inactive)	> 10 µM (inactive)	> 10 µM (inactive)	> 10 µM (inactive)	> 10 µM (inactive)	> 10 µM (inactive)	> 10 µM (inactive)	> 10 µM (inactive)	> 10 µM (inactive)	> 10	–	–	> 10 µM (inactive)	> 10 µM (inactive)	> 10 µM (inactive)	> 10 µM (inactive)	–	–
N=C(N)NS(=O)(=O)c1ccc(NNc2c3ccccc3nc3ccccc23)cc1	16.4 µM (inactive)	12.9 µM (inactive)	3.63 µM (inactive)	20 µM (inactive)	8.34 µM (inactive)	3.86 µM (inactive)	13.2 µM (inactive)	14.3 µM (inactive)	26.4 µM (inactive)	13.8 µM (inactive)	13.8 µM (inactive)	18.6	10.6 µM (inactive)	1.08 µM (active)	2.58 µM (inactive)	23.9 µM (inactive)	12.4 µM (inactive)	15.7 µM (inactive)	–	1.23 µM (inactive)
O=C(NNCc1ccccc1O)c1ccccc1O	31.4 µM (inactive)	25.2 µM (inactive)	5.12 µM (inactive)	29.2 µM (inactive)	3.1 µM (inactive)	2.28 µM (inactive)	7.57 µM (inactive)	16.5 µM (inactive)	8.85 µM (inactive)	2.51 µM (inactive)	8.41 µM (inactive)	1.19	5.89 µM (inactive)	24 µM (inactive)	3.22 µM (inactive)	–	4.01 µM (inactive)	> 100 µM (inactive)	31.4 µM (inactive)	0.735 µM (active)
CC(=O)N(C)SCC(NC(=O)C(Cc1ccccc1)NC(=O)OCC1c2ccccc2-c2ccccc21)C(=O)NC(Cc1ccccc1)C(=O)NC(Cc1cn(C=O)c2ccccc12)C(=O)NC(CCCCNC(=O)OCC1c2ccccc2-c2ccccc21)C(=O)NC(C(=O)NC(CSN(C)C(C)=O)C(=O)NC(C(N)=O)C(C)O)C(C)O (stereo not given) (Fmoc-F[X31]FW(For)K(Fmoc)T[X31]T-NH2; configuration not given here)	24.2 µM (inactive)	20.5 µM (inactive)	37 µM (inactive)	90.2 µM (inactive)	77.8 µM (inactive)	89.7 µM (inactive)	36.7 µM (inactive)	> 100 µM (inactive)	> 100 µM (inactive)	89.5 µM (inactive)	> 100 µM (inactive)	95.1	84.9 µM (inactive)	> 100 µM (inactive)	> 100 µM (inactive)	> 100 µM (inactive)	> 100 µM (inactive)	14.9 µM (inactive)	–	> 100 µM (inactive)
O=S(=O)(O)CCS [MESNA]	–	> 100 µM (inactive)	> 100 µM (inactive)	> 100 µM (inactive)	> 100 µM (inactive)	> 100 µM (inactive)	> 100 µM (inactive)	> 100 µM (inactive)	> 100 µM (inactive)	> 100 µM (inactive)	> 100 µM (inactive)	> 100	> 100 µM (inactive)	> 100 µM (inactive)	> 100 µM (inactive)	–	> 100 µM (inactive)	> 100 µM (inactive)	> 100 µM (inactive)	> 100 µM (inactive)

Source: ChEMBL document CHEMBL1201862, “PubChem BioAssay data set” (2004)
